Here are results for 34 compounds from ChEMBL document CHEMBL3813687, “A combined ligand- and structure-based approach for the identification of rilmenidine-derived compounds which synergize the antitumor effects of doxorubicin” (Bioorg Med Chem, 2016).

One may read the IC50 as the midpoint of a concentration-inhibition curve. By pKi is commonly meant the Ki on a negative log10 scale, so that one unit is a factor of ten. What is called EC50 is the concentration needed to bring the measured effect to its halfway point. Low values mean greater potency, high ones weaker potency.

Assay [1] deals with K562. In words: Antiproliferative activity against human K562 cells assessed as inhibition of cell survival after 48 hrs by MTT assay. The assay is classed as functional, cell-based. The settings on record: K562, 48 h. A general note: Tetrazolium dyes change colour on reduction, which living cells bring about.
The target of assay [2] is T1, Alpha-2A adrenergic receptor (Homo sapiens, UniProt P08913).
T1 sequence (P08913 whole entry): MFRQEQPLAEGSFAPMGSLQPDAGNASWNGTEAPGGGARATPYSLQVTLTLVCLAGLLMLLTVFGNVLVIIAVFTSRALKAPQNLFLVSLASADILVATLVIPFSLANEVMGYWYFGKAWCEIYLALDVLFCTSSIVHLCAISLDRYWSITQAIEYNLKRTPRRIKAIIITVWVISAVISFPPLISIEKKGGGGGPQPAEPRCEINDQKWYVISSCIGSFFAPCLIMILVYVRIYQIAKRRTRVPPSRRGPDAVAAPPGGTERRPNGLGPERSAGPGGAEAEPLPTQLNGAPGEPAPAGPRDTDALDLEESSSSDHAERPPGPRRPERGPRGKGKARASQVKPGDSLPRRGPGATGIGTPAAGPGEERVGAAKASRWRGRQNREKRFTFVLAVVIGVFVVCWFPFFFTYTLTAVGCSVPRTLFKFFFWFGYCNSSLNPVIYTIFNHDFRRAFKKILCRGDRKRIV
In words: Displacement of [3H]RS-79948-197 from recombinant human alpha2A adrenoreceptor expressed in CHOK1 cell membrane by scintillation counting method. The assay is classed as cell membranes, CHO-K1. To be noted: read-out: Ki(app). (Displacement assays read how much labelled ligand stays bound in the presence of the test substance.)

The target of assay [3] is T1, Alpha-2A adrenergic receptor. Kind of assay: Intrinsic activity at recombinant human alpha2A adrenoreceptor expressed in CHOK1 cell membrane incubated for 30 mins by [35S]GTPgammaS binding assay relative to adrenaline. In kind it is cell membranes. The settings on record: CHO-K1, human, 0.5 h; read-out: Intrinsic activity. (In general: GTPγS is a poorly hydrolysed GTP analogue; its binding reports G protein activation.)

Assay [4] concerns K562. Kind of assay: Induction of apoptosis in human K562 cells assessed as early apoptotic cells at 1 uM after 48 hrs by Annexin V-FITC/propidium iodide staining based flow cytometry (reference value: 5%). In kind it is functional.
In assay [5] the test system is K562. Kind of assay: Induction of apoptosis in human K562 cells assessed as late apoptotic cells at 1 uM after 48 hrs by Annexin V-FITC/propidium iodide staining based flow cytometry (reference value: 1%). The assay is classed as functional.
Assay [6] relates to K562. In words: Induction of apoptosis in human K562 cells assessed as necrotic cells at 1 uM after 48 hrs by Annexin V-FITC/propidium iodide staining based flow cytometry (reference value: 1%). The assay is classed as functional.
For assay [7], the system named is K562. Kind of assay: Induction of apoptosis in human K562 cells assessed as early apoptotic cells at 1 uM after 48 hrs by Annexin V-FITC/propidium iodide staining based flow cytometry relative to control. In kind it is functional.
For assay [8], the system named is K562. In words: Cell cycle arrest in human K562 cells assessed as increase in G2/M cell population after 48 hrs by propidium iodide staining based flow cytometry. In kind it is functional.
Assay [9] can be described thus: Displacement of [3H]-clonidine from Imidazoline-1 receptor in bovine adrenal medullary plasma membrane incubated for 40 mins in presence of RX821002. The arrangement: species or system Bos taurus.
Assay [10] is described as follows: Displacement of [3H]-clonidine from Imidazoline-1 receptor in bovine chromaffin cell membranes incubated for 40 mins in presence of RX821002. The arrangement: species or system Bos taurus.
In assay [11] the target is T2, Nischarin (Rattus norvegicus, UniProt Q4G017). Kind of assay: Displacement of [125I]PIC from Imidazoline-1 receptor in rat PC12 cell membrane incubated for 30 mins by gamma counting method. The assay is classed as cell membranes, PC-12.
T2 sequence (Q4G017 whole entry): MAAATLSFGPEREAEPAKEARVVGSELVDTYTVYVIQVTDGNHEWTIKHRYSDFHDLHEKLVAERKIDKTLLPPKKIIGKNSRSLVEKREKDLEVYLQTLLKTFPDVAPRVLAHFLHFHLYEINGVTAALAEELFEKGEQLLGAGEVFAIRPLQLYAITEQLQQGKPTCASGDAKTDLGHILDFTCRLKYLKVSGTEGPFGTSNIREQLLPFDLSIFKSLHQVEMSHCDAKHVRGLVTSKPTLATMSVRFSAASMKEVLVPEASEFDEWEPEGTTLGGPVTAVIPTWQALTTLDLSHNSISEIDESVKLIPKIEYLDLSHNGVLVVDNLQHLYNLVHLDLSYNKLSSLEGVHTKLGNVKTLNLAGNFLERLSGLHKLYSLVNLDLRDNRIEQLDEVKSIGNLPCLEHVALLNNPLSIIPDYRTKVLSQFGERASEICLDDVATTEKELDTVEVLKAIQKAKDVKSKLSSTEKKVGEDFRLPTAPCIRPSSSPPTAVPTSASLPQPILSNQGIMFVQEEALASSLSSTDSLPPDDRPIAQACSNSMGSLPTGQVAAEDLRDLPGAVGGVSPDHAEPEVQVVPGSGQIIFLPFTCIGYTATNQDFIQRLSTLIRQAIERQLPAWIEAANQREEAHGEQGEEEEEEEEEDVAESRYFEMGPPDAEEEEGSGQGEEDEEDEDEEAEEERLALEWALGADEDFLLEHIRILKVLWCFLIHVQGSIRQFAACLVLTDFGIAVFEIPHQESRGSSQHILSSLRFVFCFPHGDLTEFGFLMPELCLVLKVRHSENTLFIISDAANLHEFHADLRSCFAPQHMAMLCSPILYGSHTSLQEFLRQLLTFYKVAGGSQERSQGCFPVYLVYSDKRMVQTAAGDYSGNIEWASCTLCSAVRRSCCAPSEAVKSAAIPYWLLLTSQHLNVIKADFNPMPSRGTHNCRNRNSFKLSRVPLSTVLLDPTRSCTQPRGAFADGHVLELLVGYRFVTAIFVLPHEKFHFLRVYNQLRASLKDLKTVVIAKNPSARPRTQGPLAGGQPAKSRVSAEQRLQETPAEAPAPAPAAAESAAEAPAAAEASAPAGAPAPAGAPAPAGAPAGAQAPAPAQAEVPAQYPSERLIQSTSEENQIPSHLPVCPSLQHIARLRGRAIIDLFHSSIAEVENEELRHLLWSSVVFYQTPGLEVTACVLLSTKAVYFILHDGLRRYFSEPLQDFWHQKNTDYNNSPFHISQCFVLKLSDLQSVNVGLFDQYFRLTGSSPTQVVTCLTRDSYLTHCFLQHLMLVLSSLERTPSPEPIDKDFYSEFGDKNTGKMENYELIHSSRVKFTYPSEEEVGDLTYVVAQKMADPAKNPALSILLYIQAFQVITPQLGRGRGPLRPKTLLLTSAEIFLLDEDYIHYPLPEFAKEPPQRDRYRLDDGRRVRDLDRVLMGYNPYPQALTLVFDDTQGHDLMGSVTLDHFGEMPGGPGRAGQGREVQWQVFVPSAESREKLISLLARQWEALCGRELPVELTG
The test system of assay [12] is K562. In words: Induction of apoptosis in human K562 cells assessed as early apoptotic cells at 300 uM up to 48 hrs by Annexin V-FITC/propidium iodide staining based flow cytometry. The assay is classed as functional, cell-based.
The subject of assay [13] is K562. In words: Induction of apoptosis in human K562 cells assessed as early apoptotic cells at 50 uM after 48 hrs by Annexin V-FITC/propidium iodide staining based flow cytometry (reference value: 5%). The assay is classed as functional.
Assay [14] relates to K562. In words: Potentiation of doxorubicin-induced apoptosis in human K562 cells assessed as early apoptotic cells at 50 uM after 48 hrs by Annexin V-FITC/propidium iodide staining based flow cytometry relative to control. The assay is classed as functional.
For assay [15], the target named is T1, Alpha-2A adrenergic receptor.
Description: Agonist activity at recombinant human alpha2A adrenoreceptor expressed in CHOK1 cell membrane incubated for 30 mins by [35S]GTPgammaS binding assay
Assay [16] concerns K562. Kind of assay: Induction of apoptosis in human K562 cells assessed as early apoptotic cells at 300 uM after 24 hrs by Annexin V-FITC/propidium iodide staining based flow cytometry (reference value: 5%). The assay is classed as functional.
Assay [17] concerns K562. Kind of assay: Induction of apoptosis in human K562 cells assessed as early apoptotic cells at 300 uM after 48 hrs by Annexin V-FITC/propidium iodide staining based flow cytometry (reference value: 5%). The assay is classed as functional.
Assay [18] concerns the target T2, Nischarin. Kind of assay: Displacement of [125I]PIC from Imidazoline-1 receptor in rat PC12 cell membrane by gamma counting method. In kind it is cell membranes, PC-12.

Active and inactive are the calls of the source. The calls are words filed in the database; no cut-off is given here. Bounds are passed on as bounds.

For the compound `CCCCCn1c(C)cc(NCc2ccc(Cl)cc2)cc1=O`, the IC50 with K562 [1] is over 300 µM. Moreover, in assay [2], the Ki was found to be 80 µM. Further, the Emax in assay [3] came out at 0%.

With `CCC1(c2cnc[nH]2)Cc2ccccc2C1` [ATIPAMEZOLE], the Ki in assay [2] is 0.0012 µM.

Consider `COc1cccc2c1C(=O)c1c(O)c3c(c(O)c1C2=O)C[C@@](O)(C(=O)CO)C[C@@H]3O[C@H]1C[C@H](N)[C@H](O)[C@H](C)O1` [DOXORUBICIN], for which the IC50 in the assay on K562 [1] stood at 1 µM. Besides, the Activity with K562 [4] is 20%; in the assay with K562 [5] it was 0%; with K562 [6], 0%; in the assay with K562 [7] it was 10%. Also, the outcome with K562 [8] was Active.

Turning to `Cc1cc(NCc2ccc(C(F)(F)F)cc2)cc(=O)n1CC(C)C`, the IC50 with K562 [1] is 222 µM. Further, the Ki in assay [2] turned out to be 58 µM. Further, the Emax in assay [3] was -6%.

For the compound `COC1=CCCC=C1C1=NCCN1`, the pKi in [9] turned out to be 8.53.

As to `Cc1cc(NCCC(C)C)cc(=O)n1CCC(C)C`, the concentration for half-maximal inhibition (IC50) with K562 [1] came to 128 µM. In assay [2], the Ki is 52 µM. Also, the Emax in [3] is -17%.

For the compound `CC1CCN=C1NC(C1CC1)C1CC1` (stereo not drawn), the pKi in assay [10] was 4.

On Nischarin [11], `CC1CCC(=Nc2ccc(I)cc2Cl)N1` (stereo not drawn) had a Ki of 0.000178 µM.

Regarding `CCCCCNc1cc(C)n(Cc2ccccc2)c(=O)c1`, the IC50 in the assay on K562 [1] was 140 µM. In addition, in [2], the Ki came to 110 µM. The Emax in assay [3] was -8%.

For the compound `CN1CCCCC1CCn1cnc2ccccc21` (stereo not drawn), the IC50 in the assay on K562 [1] was over 300 µM. Further, in [2], the Ki was 11 µM. In assay [3], the Emax is -6%.

`CCC(NC1=NCCC1)C1CC1` (stereo not drawn): in [10], the pKi is given as 6.29.

At Nischarin [11], `Clc1cc(I)cc(Cl)c1N=C1NCCN1` [PI-CLONIDINE] had a Ki of 0.000794 µM.

As to `CCC1(C2=NCCN2)Cc2ccccc2O1` (stereo not drawn) [EFAROXAN], the IC50 with K562 [1] was over 300 µM. In [3], the Emax was -13%. In addition, the result in the assay on K562 [12] was inactive.

The compound `CC(Oc1c(Cl)cccc1Cl)C1=NCCN1` (stereo not drawn) [LOFEXIDINE] gave a Ki at Nischarin [11] of 0.00562 µM.

In the case of `CC1CCC(NC(C2CC2)C2CC2)=N1` (stereo not drawn), the pKi in assay [10] turned out to be 5.8.

On to `Cc1ccc(F)c(C2=NCCN2)c1`, for which the pKi in assay [9] turned out to be 8.28.

As for `Cc1cc(NCc2ccc(Cl)cc2)cc(=O)n1CCC(C)C`, the IC50 in the assay with K562 [1] was 224 µM. Moreover, in assay [2], the Ki came out at 99 µM. The Emax in assay [3] was -1%.

Turning to `Cc1cc(NCc2ccccc2)cc(=O)n1CCC(C)C`, the half-maximal inhibitory concentration (IC50) in the assay with K562 [1] is over 300 µM. In addition, the Ki in assay [2] is 27 µM. For the same compound, in assay [3], the Emax was -10%.

Regarding `C1COC(NC(C2CC2)C2CC2)=N1` [RILMENIDINE], the Activity was 20% in the assay with K562 [13] and 44% in the assay with K562 [14]. For the same compound, the IC50 in the assay on K562 [1] was 65 µM. For the same compound, the Ki was 0.3 µM in assay [2] and 0.0126 µM on Nischarin [11]. For the same compound, the Emax in assay [3] came out at 54%. Further, it took 0.178 µM to reach a half-maximal effect in assay [15] (EC50).

As for `COc1nc(C)nc(Cl)c1NC1=NCCN1` [MOXONIDINE], the results for the Activity in the assay with K562 [16] and in the assay with K562 [17] were 2.31% and 2.68%, respectively.

Regarding `Cc1cc(NCCC(C)C)cc(=O)n1Cc1ccccc1`, in the assay with K562 [1], the IC50 was over 300 µM. Moreover, the Ki in assay [2] was found to be 110 µM. Moreover, in assay [3], the Emax was -2%.

At Nischarin [11], `Clc1cccc(Cl)c1N=C1NCCN1` [CLONIDINE] had a Ki of 0.126 µM.

On to `Clc1cccc2c1CN(NC1=NCCN1)C2`, for which the Ki on Nischarin [11] is 0.0282 µM.

In turn, `c1ccc([C@H]2C[C@@H]2C2=NCCN2)cc1` showed a Ki at Nischarin [18] of 0.347 µM.

Turning to `CCC1CCC(NC(C2CC2)C2CC2)=N1` (stereo not drawn), the pKi in assay [10] turned out to be 6.77.

Take `CCCCCNc1cc(C)n(CCCCC)c(=O)c1`: the 50% inhibitory concentration (IC50) in the assay on K562 [1] was found to be 115 µM. Also, the Ki in [2] was determined as 62 µM. Besides, the Emax in assay [3] was -18%.

For the compound `c1ccc2c(c1)OCC(C1=NCCN1)O2` (stereo not drawn) [IDAZOXAN], the Ki at Nischarin [18] was 1.26 µM.

For the compound `CCCCCn1c(C)cc(NCc2ccccc2)cc1=O`, in the assay on K562 [1], the IC50 is over 300 µM. Moreover, the Ki in [2] amounted to 41 µM. Besides, the Emax in [3] was -12%.

Turning to `C1CCC2N=C(NC(C3CC3)C3CC3)CC2C1` (stereo not drawn), the pKi in assay [10] is recorded as 4.

In the case of `N#CSc1ccc2oc(C3=NCCN3)cc2c1`, in assay [10], the pKi is given as 5.6.

Turning to `CC(CC1=NCCN1)c1ccccc1` (stereo not drawn), at Nischarin [18], the Ki was 7.24 µM.

On to `C(=C\c1ccccc1)/C1=NCCN1` [TRACIZOLINE], for which the Ki on Nischarin [18] was 0.0191 µM.

For the compound `NC1=NCC(COc2ccccc2Br)O1` (stereo not drawn), the pKi in [9] was found to be 8.19.

Consider `Cc1cccc([C@H](C)c2c[nH]cn2)c1C` [DEXMEDETOMIDINE], for which the Emax in assay [3] turned out to be 63%.
